The source of these data is patent publication US5318985A, “Potentiation of NMDA antagonists” (Merrell Dow Pharmaceuticals Inc., priority 1991, dated 1994).

What is called ED50 is the dose that gives a 50% effect, or the effect in half of the subjects.

The subject of series [1] is sound induced seizures in DBA/2J audiogenic mice. Briefly: inhibition of sound induced seizures in audiogenic mice (anti-epileptic activity). The series is classed as in vivo. The following applies: two hours before 110 decibels sound for 30 seconds, 120 min.
From the text: One method for evaluating the potential anti-epileptic activity of selected compounds is by their ability to inhibit sound induced seizures in audiogenic mice. DBA/2J audiogenic mice experience seizures when exposed to loud noises. Compounds which prevent this phenomenon are considered to be antiepilpetic agents.
Two hours after administration, they were placed individually in glass jars and exposed to a sound stimulus of 110 decibels for 30 seconds. Each mouse was observed during the sound exposure for signs of seizure activity. A graph was prepared based upon the dose administered and the percentage of animals protected at that dose. An ED50 was calculated from the graph. In some mice the test was performed with the only modification being the addition of 100 mg/kg of probenecid IP.
The test was conducted in the following manner.
Five minutes after administration, they were placed individually in glass jars and exposed to a sound stimulus of 110 decibels for 30 seconds. Each mouse was observed during the sound exposure for signs of seizure activity. A graph was prepared based upon the dose administered and the percentage of animals protected at that dose. An ED50 was calculated from the graph. The test was also performed in separate mice with the only modification being the addition of 100 mg/kg or 200 mg/kg of probenecid IP.
In series [2] the test system is quinolinic acid induced clonic seizures in mice. The series can be described thus: inhibition of quinolinic acid (intracerebroventricular) induced clonic seizures in mice. It counts as in vivo. The procedure: The intracerebroventricular administration of quinolinic acid induces clonic seizures in mice.
In this test, groups of 10 mice were pretreated intravenously with varying doses of R-4-Oxo-5-phosphononorvaline(hereinafter compound) ranging from 1 to 16 mg/kg. Five minutes later the mice were administered 7.7 micrograms of quinolinic acid intracerebroventricularly in a volume of 5 microliters of saline. […] A graph was prepared based upon the dose administered and the percentage of animals protected at that dose. An ED50 was calculated from the graph. The test was then repeated in separate mice with the only modification being the addition of 100 mg/kg of probenecid IP. The following ED50 's were obtained.
The protocol described above was repeated except that the compounds was administered intraperitoneally (dosage ranging from 0.5 to 32 mg/kg) and the pretreatment time was extended to 30 minutes. The following ED50 's were obtained.

For series [3] the following is noted: sodium salt; cited from earlier work.

Where a name gives a salt, the structure may show the parent alone. Read-outs that look alike come from different tables or passages of the source.

Take “3-[(phenacyl)methylamino]-2-carboxy-4,6-dichloroindole”: the ED50 came out at 183.7 mg/kg in series [1] (compound alone, i.p. 25 to 400 mg/kg) and 45.4 mg/kg in series [1] (compound i.p. + 100 mg/kg probenecid IP).

On to `N[C@H](CC(=O)CP(=O)(O)O)C(=O)O` [R-4-Oxo-5-phosphononorvaline], for which the ED50 in series [2] (Mus musculus, 5 min, compound alone, intravenous 1 to 16 mg/kg, five minutes before quinolinic acid 7.7 micrograms icv, read-out: ED50) was 4 mg/kg; in series [2] (Mus musculus, ip, 0.5 h, compound alone, intraperitoneal 0.5 to 32 mg/kg, 30 minutes pretreatment, read-out: ED50) it was 16.3 mg/kg; in series [2] (compound intraperitoneal + probenecid (protocol as before: 100 mg/kg IP), 30 minutes pretreatment), 8.0 mg/kg; in series [2] (compound intravenous + 100 mg/kg probenecid IP, five minutes before quinolinic acid 7.7 micrograms icv, 5 min), 2.3 mg/kg.

Take `CCCN(CCC)S(=O)(=O)c1ccc(C(=O)O)cc1` [sodium salt of probenecid]: the water solubility entry in series [3] was “readily water soluble”.
